Consider one compound from paper PMC9414676, “Experimental Studies Indicate That ST-2223, the Antagonist of Histamine H3 and Dopamine D2/D3 Receptors, Restores Social Deficits and Neurotransmission Dysregulation in Mouse Model of Autism” (Pharmaceuticals, 2022).

One test has as its target EeAChE (Electrophorus electricus, UniProt O42275). In words: Acetylcholine esterase inhibition (preliminary data). The format is biochemical, electric eel.
For a further test, the system named is BTBR mice. As to the kind of experiment: Open field locomotor test (OFL), anxiety-like behavior and locomotion. The format is in vivo. The protocol: (§1) All the mice were randomly divided into nine groups of 5–7 mice each. The mice were injected intraperitonially once daily for 21 days with different doses of ST2223 (2.5, 5, and 10 mg/kg, i.p.), ARP 1 mg/kg or vehicle (1% DMSO in 0.9% normal saline). Group I, B6 mice were injected with vehicle served as control. Group II, BTBR mice were treated with vehicle. Groups III–V, BTBR mice received i.p. injections of different doses of ST2223 (2.5, 5, and 10 mg/kg, i.p.), respectively. Group VI, BTBR mice were injected with ARP (1 mg/kg, i.p.). For abrogation studies, Group VII, BTBR mice were treated with ST2223 (5 mg/kg, i.p.) along with RAM (10 mg/kg, i.p.). Group VIII, B6 mice were co-injected with vehicle and RAM (10 mg/kg, i.p). All treatments and vehicle (VEH) were administered 30–45 min before each behavioral test. The doses of these drugs were selected based on previous reports. Behavioral testing was performed between 9:00 am and 3:00 pm in an order randomized by group and in the following sequence: social approach test (SAT) and open field locomotor test (OFL). The chronic treatment started one week before the behavioral test and was continued for a total of 21 days as described above (Figure 7). Following behavioral tests, i.e., on day 21 of systemic treatment, five of the animals were sacrificed. The animals were deeply anesthetized with pentobarbital (40 mg/kg, i.p., body weight). To wash out the blood, cardiac perfusion was carried out using 0.01 M phosphate-buffered saline (PBS) at pH 7.4. The brains were quickly removed and placed on an ice plate, where the cerebellum, hippocampus, prefrontal cortex, and striatum were excised from the brain and snap-frozen in liquid nitrogen for later LC-MS/MS analysis.
Open field locomotor test (OFL) systematically assesses exploratory activity based on subjecting an animal to an unfamiliar environment whose escape is prevented by surrounding walls. It is a model of anxiety-like behavior, suitable for assessing motor activity as a reaction to an unknown environment, i.e., locomotion motivated by exploration. Both general locomotor activity and anxiety-related behaviors were assessed as the mice were placed individually inside an open field arena (45 × 45 × 30 cm) and were allowed to move freely for 10 min [80]. Mice were introduced into the center area of the arena (23 × 23 cm) and given 5 min habituation before actual behaviors recording. The overall distance moved inside the complete arena and time spent in the center and periphery was recorded for 10 min using CCD camera-assisted motion tracking equipment and software program (EthoVision 3.1, Noldus Information Technology, The Netherlands). Measurements obtained included total distance traveled and center and periphery time spent for […]. After each testing sessions, chambers we cleaned with 70% ethanol, and enough time was allowed for ethanol evaporation and odor dissipation. When evaluating the results, more time spent in the center indicated low levels of anxiety-like behaviors and total distance travelled represented locomotor activity.

Test [1] deals with histamine levels in BTBR mice brain. As to the kind of experiment: Histamine levels by LC-MS/MS in brain regions. The format is in vivo. The conditions noted are these: ST-2223 5 mg/kg i.p. chronic, vs VEH-treated BTBR mice. Details: key to Histamine level: ↔: No significant alterations; ↑: significant increase; ↑↑: additional significant increase vs. ST-2223-treated mice; ↓: significant decrease. The protocol: as §1
(§2) Perfusion was done on anesthetized animals using 1X PBS as described previously. Different regions of the brain were snap frozen. Frozen tissues were then weighed and homogenized in a 10-fold volume of acetonitrile. For 50mg of tissue, 500 µL of acetonitrile and Internal standard mix were added and homogenized. Homogenates were centrifuged at 15,000 rcf for 15 min at 4 °C. Tissue levels of dopamine, acetylcholine, histamine, and their metabolites were assessed using LC-MS/MS. LC-MS/MS analysis was conducted utilizing Waters BEH C18 COLUMN (2.1 × 100 mm, 1.7 µm) using Waters Acquity UPLC Binary Solvent Manager and FTN Sample Manager. The system was run in gradient mode with mobile phase A consisting of LC-MS GRADE WATER + 0.1% FORMIC ACID and mobile phase B consisting of 100% ACETONITRILE. Mobile phase was duly filtered through 0.2 µm filter and degassed ultrasonically for 15 min prior to use. Separations were performed at room temperature with 0.3 mL/min flow rate gradient starting with 90% of A for up to 0.5 min. Then, % of A was decreased gradually until it reached 20% at 2.5 min after which at 3 min %A was brought back to the initial condition and left for equilibration for 2 more minutes before the next injection (total 5 min run time). The injection volume was kept at 1 µL. Mass spectrometric detection was performed in multiple reaction monitoring (MRM) mode with positive electrospray ionization (ESI+) on Xevo TQS mass spectrometer (Waters, Milford, MA) equipped with an electrospray ionization (ESI) source and triple quadrupole mass analyzer. MRM transitions and instrument parameters were set by tuning the instrument by infusing each analyte. MRM transitions taken for quantification were 146.2 > 87.1 for Acetylcholine, 112.2 > 95.2 for Histamine, 154.1 > 137.2 for Dopamine, 150.2 > 91.3 for Acetylcholine D4, and […] > 99.3 for Histamine D4. Capillary Voltage, Source Offset, Source Temperature, De solvation Temperature, Cone Gas Flow, De solvation Gas Flow, Collision Gas Flow, Nebulizer Gas Flow were set as 3.0 (kV), 60.0 (V), 150 (°C), 550 (°C), 150 (L/Hr), 1000 (L/Hr), 0.13 (mL/min), and 7 (Bar), correspondingly. […]

For test [2], the system named is acetylcholine levels in BTBR mice brain. As to the kind of experiment: Acetylcholine levels by LC-MS/MS in brain regions. It is filed as in vivo. Further details: key to Acetylcholine level: ↔: No significant alterations; ↑: significant increase; ↑↑: additional significant increase vs. ST-2223-treated mice; ↓: significant decrease. The conditions noted are these: for Acetylcholine level: ST-2223 5 mg/kg i.p. chronic, vs VEH-treated BTBR mice. The protocol:
as §1, §2

In another test the test system is B6 control mice. Further details: method as in PMID 33669336. The conditions noted are these: cited from earlier work.
[3] abbreviates: ST-2223 5 mg/kg i.p. chronic, p < 0.05.
[4] abbreviates: ST-2223 10 mg/kg i.p. chronic, p < 0.05.

“Also recorded” adds a separate entry of the source.

Chain of EeAChE (O42275 24-633): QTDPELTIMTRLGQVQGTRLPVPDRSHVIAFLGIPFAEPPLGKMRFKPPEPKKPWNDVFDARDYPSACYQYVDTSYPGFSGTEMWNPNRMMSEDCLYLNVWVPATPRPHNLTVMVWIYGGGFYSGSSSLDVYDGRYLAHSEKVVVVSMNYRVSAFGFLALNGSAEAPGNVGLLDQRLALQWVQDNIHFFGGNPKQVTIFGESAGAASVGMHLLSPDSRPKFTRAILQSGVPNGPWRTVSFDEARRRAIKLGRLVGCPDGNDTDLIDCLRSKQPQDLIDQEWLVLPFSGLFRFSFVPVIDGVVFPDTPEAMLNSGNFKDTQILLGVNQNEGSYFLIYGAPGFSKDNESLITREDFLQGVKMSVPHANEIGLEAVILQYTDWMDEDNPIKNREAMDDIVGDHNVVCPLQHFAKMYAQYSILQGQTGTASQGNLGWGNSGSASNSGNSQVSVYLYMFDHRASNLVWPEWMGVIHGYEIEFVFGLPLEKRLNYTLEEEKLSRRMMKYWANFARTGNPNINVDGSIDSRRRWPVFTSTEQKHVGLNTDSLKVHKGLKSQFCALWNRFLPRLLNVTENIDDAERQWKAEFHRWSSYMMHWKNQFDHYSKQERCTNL

Consider `COc1ccccc1N1CCN(CCCCNC(=O)c2ccc3cc(OCCCN4CCCCC4)ccc3c2)CC1` [ST-2223, N-(4-(4-(2-methoxyphenyl)piperazin-1-yl)butyl)-6-(3-(piperidin-1-yl)propoxy)-2-naphthamide], for which the “inhibition of acetylcholine esterase enzyme (eeAChE), in words” value against EeAChE is “neglectful inhibition”. In addition, the “time spent in the periphery” value with BTBR mice (ST-2223 2.5 mg/kg i.p. chronic) was “no group differences”; with BTBR mice (setting [3]), “significantly corrected the decreased time”; in the test on BTBR mice (ST-2223 10 mg/kg i.p. chronic) it was “no group differences”. In addition, the “time spent in the center of the open field” value was “failed to decrease the time spent in the center of the arena to a significant level” in the test on BTBR mice (ST-2223 2.5 mg/kg i.p. chronic, p = 0.84); “significantly less time in the central compartment” in the test on BTBR mice (setting [3]); “significantly less time in the central compartment” in the test with BTBR mice (setting [4]). Besides, the “total distance travelled vs VEH-treated BTBR mice” value with BTBR mice (setting [3]) and in the test on BTBR mice (setting [4]) was “significantly decreased the total distance travelled” in each case. The Histamine level result was “↑ ^b” in test [1] (Cerebellum), “↔” in test [1] (Hippocampus), “↔” in test [1] (Prefrontal cortex) and “↑ ^b” in test [1] (Striatum). Moreover, in test [1] (5 mg/kg), the “levels of histamine in brain regions” value was “significantly increased the levels of histamine in cerebellum and striatum; also recorded: without significant enhancement of brain histamine in hippocampal tissues”. In addition, the Acetylcholine level result in test [2] (Hippocampus), in test [2] (Prefrontal cortex) and in test [2] (Striatum) was “↑ ^b” throughout. Further, the “acetylcholine levels” value in test [2] (prefrontal cortex, striatum and hippocampus, ST-2223 5 mg/kg chronic, p < 0.05) was “significant increase of acetylcholine levels”. Besides, the “behavioral alterations in B6 control mice” value in the test with B6 control mice was “no behavioral alterations”.
